Laboratory results taken from patent US20030207933A1, “Compositions and methods for increasing the sensitivity of apoptosis-resistant tumor cells to inducers of apoptosis” (priority 2002, published 2003).

Key:
[1] = Cytotoxicity to normal venous endothelial cells (MTT dye reduction assay); assay type: cell-based, human; conditions: human, normal venous endothelial cells, 6 h
[2] = system: Normal human venous endothelial cells; experiment: as above; assay type: cell-based
[3] = system: HS-treated U937 cells; experiment: DNA fragmentation in heat shock-treated U937 cells; assay type: cell-based
Procedure: U937 cells received either no heat shock (HS) treatment or HS treatment at 42° C. for 30 min followed by recovery for 3 hr. The cells were then treated with etoposide or TNF with and without W-188, which alone was nontoxic. After 3 hr, DNA fragmentation was measured by release of ^3H-labeled DNA. As expected, U937 cells exposed to HS treatment were completely resistant to etoposide or TNF-induced DNA fragmentation (FIG. 7).

[4] = system: Wehi-Hsp70 fibrosarcoma cells; experiment: 20 h DNA fragmentation assay in Wehi cells overexpressing Hsp70; assay type: cell-based, murine; conditions: etoposide + 20 μM W-188, FIG. 8
Procedure: This finding was confirmed using the Wehi murine fibrosarcoma cell line that is transfected with and overexpresses Hsp70, as described previously (Jaattela, M., et al., EMBO J. 1998, 17:6124). Wehi transfected with Hsp70 or vector control were cultured with etoposide ±20 μM W-188 in a 20 h DNA fragmentation assay.

[5] = system: bFGF-treated U937 cells; experiment: DNA fragmentation in bFGF-treated U937 cells; assay type: cell-based; conditions: 1 ng/ml bFGF 20 h pretreatment; FIG. 9
Procedure: Another means by which cells may evade apoptosis is by treatment with various growth factors. To assess the ability of W-188 to reverse the apoptosis resistance induced by growth factors, U937 cells were treated ±1 ng/ml basic fibroblast growth factor (bFGF) for 20 h, then exposed to etoposide or TNF and DNA fragmentation measured.

[6] = system: LY-ar cells; experiment: Radiation-induced DNA fragmentation in LY-ar cells; assay type: cell-based, murine; conditions: γ-radiation in the presence of W-188; FIG. 10
Procedure: Additional studies were performed to determine if W-188 could also sensitize cells that naturally express high levels of Bcl-2. Clones were isolated from the murine B cell lymphoma, LY, that naturally express low levels of Bcl-2 (LY-as) or high levels (LY-ar), as described previously (Mirkovic, N., et al., Oncogene, 1997, 15:1461).
(§1) LY-ar was highly resistant to apoptosis induced by y-radiation. […] The apparent selective effects of W-188 may be due to the preferential intracellular accumulation of porphyrin compounds in transformed cells as opposed to normal cells reported previously (Bugelski, P. J., et al., Cancer Res., 1981, 41:4606).

[7] = system: HL-60-Bcl-2 cells; experiment: 10 day colony formation assay, HL-60-Bcl-2; assay type: cell-based, human; conditions: not shown
From the text: as §1

[8] = system: GSH; experiment: Intracellular GSH levels; assay type: cell-based
From the text: However, more recent findings indicate that W-188 may also downregulate expression of endogenous Bcl-2 in cells that naturally have high levels of this protein.

[9] = system: Bcl-2; experiment: Expression of Bcl-2 protein in HL-60-Bcl-2 cells; assay type: cell-based, human; conditions: W-188 + etoposide / chemotherapeutic drugs, in vitro
[10] = system: HL-60 cells; experiment: Subcellular distribution of W-188 in HL-60 cells (absorbance at 380 nm); assay type: in vitro ADME, human
Procedure: (§2) A method to measure the subcellular localization of this compound was developed by the inventors of the present invention. Because of its distinctive absorbance spectrum, W-188 can be detected in cell and tissue extracts by measuring absorbance at 380 nm, and quantitated relative to a standard curve constructed with known amounts of W-188. HL-60 and PW cells containing vector control or overexpressing Bcl-2 were incubated with W-188 followed by cell lysis and isolation of nuclei, mitochondria, and cytotol by differential centrifugation.
(§3) Furthermore, it can be seen that nuclei and mitochondria from cells overexpressing Bcl-2 accumulated higher levels of W-188 than the vector control cells. These findings are consistent with the hypothesis that W-188 may counteract the protective effects of Bcl-2 mediated at both the mitochondria as well as the nucleus.

[11] = system: PW cells; experiment: Subcellular distribution of W-188 in PW cells (absorbance at 380 nm); assay type: in vitro ADME, human
Procedure: as §2, §3

[12] = system: RIF-1 fibrosarcoma; experiment: RIF-1 fibrosarcoma tumor growth in vivo; set-up: species or system mice; conditions: for Effect on tumor growth: five i.p. injections
From the text: The present study tested in the ability of W-188 to synergize with Dox and inhibit tumor growth in vivo. The RIF-1 fibrosarcoma model was used because this model has been well-characterized, and naturally expresses high Bcl-2 levels and has a consistent growth pattern (Nahabedian, M. Y., et al., J. Natl. Can. Inst., 1988, 80:739; Chang, M-J., et al., Cancer Res., 1994, 54:5380; Srivastana, M., et al., J. Biol. Chem., 2001, 276:15481).
Groups of five mice each were inoculated s.c. with RIF-1 cells. The tumors were allowed to grow for 12 days to a size of 0.5 cm diameter, which was designated day 0. The mice were then given five i.p. injections every other day with vehicle, Dox 2.5 mg/kg, Dox 5.0 mg/kg, W-188 100 mg/kg, and Dox 5.0 mg/kg+W-188 100 mg/kg. The mice were weighed and the tumor size measured every day.
The protocol was similar to that described for the W-188 experiment in Example 8, except that in this study, mice with established tumors received only three injections of W-143 or Dox every other day starting on day 0.

[13] = Body weight of RIF-1 tumor bearing mice
From the text: Groups of five mice each were inoculated s.c. with RIF-1 cells. The tumors were allowed to grow for 12 days to a size of 0.5 cm diameter, which was designated day 0. […] The mice were weighed and the tumor size measured every day.

For `CCC1=C(C)C(/C=C2\NC(=O)C(C)=C2CC)=NC/1=C\c1[nH]c(/C=C2\NC(=O)C(C)=C2CC)c(C)c1CC` [W-188, etiobiliverdin-IV], the cytotoxicity at 6 h, 25 μg/mL ([1]; W-188 25 μg/mL, etoposide 0 μM) was 7 ± 1.5%, the cytotoxicity at 6 h, 50 μg/mL ([1]; W-188 50 μg/mL, etoposide 0 μM) was 22 ± 2% and the cytotoxicity at 6 h, 25 μg/mL ([1]; YW-200 0.01 μM + W-188 25 μg/mL) was 38 ± 4.9%. The cytotoxicity at 6 h, 50 μg/mL ([1]; YW-200 0.01 μM + W-188 50 μg/mL) was 59 ± 2.2%, the cytotoxicity at 6 h, 25 μg/mL ([1]; etoposide 100 μM + W-188 25 μg/mL) was 11 ± 1.5% and the cytotoxicity at 6 h, 50 μg/mL ([1]; etoposide 100 μM + W-188 50 μg/mL) was 21 ± 1.6%. The “Effect on toxic effects of etoposide on normal cells” value [2] was “did not increase the toxic effects of etoposide”, the “Augmentation of killing of endothelial cells by etoposide or YW-200” value ([2]; W-188 at concentrations as high as 50 μg/mL) was “did not augment the killing of endothelial cells by etoposide or YW-200” and the “Etoposide or TNF-induced DNA fragmentation after HS treatment” value ([3]; HS 42° C. 30 min, recovery 3 hr, 3 hr assay, FIG. 7) was “levels of etoposide or TNF-induced DNA fragmentation comparable to that seen in normal U937 cells”. For the same compound, the “Toxicity of compound alone” value ([3]; W-188 alone) was “nontoxic”, the “Etoposide-induced DNA fragmentation” value [4] was “underwent DNA fragmentation at levels comparable to that observed with the Wehi-vector control” and the “Reversal of bFGF-induced resistance to etoposide or TNF-induced DNA fragmentation” value [5] was “completely reversed resistance to apoptosis”. For the same compound, the “Radiation-induced DNA fragmentation” value [6] was “underwent DNA fragmentation at levels equal to or exceeding that of LY-as treated with radiation”, the “Sensitization to cell death mediated by etoposide and chlorambucil” value [7] was “sensitized HL-60-Bcl-2 and LY-ar cells to cell death mediated by etoposide and chlorambucil” and the “Intracellular levels of GSH” value ([8]; W-188 + etoposide, HL-60-Bcl-2 and LY-ar cells) was “caused depletion of GSH”. For the same compound, the “Intracellular levels of GSH” value ([8]; W-188 alone) was “did not affect intracellular levels of GSH or caspase 3 activity”, the “Expression of Bcl-2 protein” value [9] was “did not downregulate the expression of Bcl-2 protein” and the “W-188 (μg/mg protein), Cytosol” value ([10]; HL-60 Bcl-2) was 0.25 μg/mg protein. For the same compound, the “W-188 (μg/mg protein), Mitochondria” value ([10]; HL-60 Bcl-2) was 10.0 μg/mg protein, the “W-188 (μg/mg protein), Nuclei” value ([10]; HL-60 Bcl-2) was 186 μg/mg protein and the “W-188 (μg/mg protein), Cytosol” value ([10]; HL-60 neo) was 0 μg/mg protein. For the same compound, the “W-188 (μg/mg protein), Mitochondria” value ([10]; HL-60 neo) was 3.3 μg/mg protein, the “W-188 (μg/mg protein), Nuclei” value ([10]; HL-60 neo) was 100 μg/mg protein and the “W-188 (μg/mg protein), Cytosol” value ([11]; PW Bcl-2) was 0 μg/mg protein. The “W-188 (μg/mg protein), Mitochondria” value ([11]; PW Bcl-2) was 4.5 μg/mg protein, the “W-188 (μg/mg protein), Nuclei” value ([11]; PW Bcl-2) was 166 μg/mg protein and the “W-188 (μg/mg protein), Cytosol” value ([11]; PW neo) was 0 μg/mg protein. For the same compound, the “W-188 (μg/mg protein), Mitochondria” value ([11]; PW neo) was 2.5 μg/mg protein, the “W-188 (μg/mg protein), Nuclei” value ([11]; PW neo) was 133 μg/mg protein and the “Effect on tumor growth” value ([12]; W-188 100 mg/kg + Dox 5.0 mg/kg) was “synergistically inhibited tumor growth”. The “Tumor size relative to vehicle control” value ([12]; W-188 100 mg/kg + Dox 5.0 mg/kg, day 12, p=0.0005) was “only half the size of the vehicle control”, the “Effect on tumor growth” value ([12]; W-188 100 mg/kg alone, data not shown) was “no effect on tumor growth” and the Body weight ([13]; W-188 + Dox 5 mg/kg, FIG. 12) was “did lose weight, but not much more than those mice treated with Dox 5 mg/kg alone”. For the same compound, the Body weight ([13]; W-188 alone, data not shown) was “did not show any decrease in weight”.
